Each structure is given as a SMILES string. Where two headings read alike, the source gives them in different places.

The GI50 is the concentration at which growth is held to half of that of the control. Read a high GI50 as lower sensitivity of the cells.

The test system of test [1] is NCI-H2052 Tet-On shYAP_2371 pLenti6 MCAT_Luc cells (YAP-dependent transcription). Put plainly: YAP reporter gene activity assay (MCAT-luciferase), NCI-H2052. Particulars: 24 hours incubation, BrightGlo luminescence. In kind it is cell-based. In short, it runs like this: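 NCI-H2052 cells carrying an MCAT-luciferase reporter and a tetracycline-inducible YAP 3′UTR shRNA were treated with eleven 2-fold compound dilutions (0.1% DMSO) for 24 h at 37 °C. BrightGlo luminescence was background-subtracted and expressed as % of DMSO control. IC50 came from a four-parameter fit; MKN-45/Ubc-luc cells served as the specificity counterscreen.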

The target of test [2] is His-humanTEAD4 217-434 / N-biotinylated YAP 60-100 (Homo sapiens (Human), UniProt Q15561). The test can be described thus: TR-FRET YAP-TEAD4 biochemical assay, alternative format. It counts as binding. The note with it: alternative format, marked with star *); 5 nM His-humanTEAD4 217-434, 10 nM N-biotinylated YAP 60-100. How it is done: […] Compounds were dissolved at 10 mM in 100% DMSO and serial dilutions were made in 100% DMSO. The diluted compound solutions were incubated in white 384-well plates (Greiner Bio-One) for 1 h at room temperature with the above described mix. The final DMSO concentration present in the assay was 1%. […] The IC50 values were estimated by fitting the data by nonlinear fit regression (GraphPad Prism).
Background: In TR-FRET formats the signal depends on donor and acceptor labels being close together.

For test [3], the system named is MKN-45/Ubc-luc cells. Put plainly: Proliferation assay (resazurin), MKN-45. In kind it is cell-based. Particulars: 72 hours incubation. (Alamar Blue is a resazurin reagent that responds to reducing activity.)
The subject of test [4] is NCI-H2052 Tet-On shYAP_2371 pLenti6 MCAT_Luc cells. Put plainly: Proliferation assay (resazurin), NCI-H2052. In kind it is cell-based. Particulars: 72 hours incubation. A digest of the protocol:
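The NCI-H2052 line carries a Tet-inducible shRNA against the YAP1 3′UTR and an MCAT luciferase reporter. The day after seeding, it received eleven 2-fold compound dilutions at 0.1% DMSO, and viability was read by resazurin fluorescence.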

In test [5] the test system is MKN-45/Ubc-luc cells. The test can be described thus: Reporter gene specificity control (Ubc-luciferase), MKN-45.
Test [6] has as its target Avi-humanTEAD4 217-434 / Cy5 labeled humanYAP 60-100 (Homo sapiens (Human), UniProt Q15561). The test can be described thus: TR-FRET YAP-TEAD4 in-vitro biochemical assay. In kind it is binding. The note with it: 1 nM Avi-humanTEAD4 217-434, 20 nM Cy5-humanYAP 60-100, 1 h room temperature.
Setting [7] is: read-out: Reporter gene assay MKN-45 IC50, MKN-45/Ubc-luc cells (YAP deleted, specificity control), 24 hours incubation.
[8] abbreviates: Homo sapiens, MKN-45, 24 h, read-out: Reporter gene assay MKN-45 IC50 [μM], MKN-45/Ubc-luc cells (YAP deleted, specificity control), 24 hours incubation.

Sequence of His-humanTEAD4 217-434 / N-biotinylated YAP 60-100 (Q15561 217-434): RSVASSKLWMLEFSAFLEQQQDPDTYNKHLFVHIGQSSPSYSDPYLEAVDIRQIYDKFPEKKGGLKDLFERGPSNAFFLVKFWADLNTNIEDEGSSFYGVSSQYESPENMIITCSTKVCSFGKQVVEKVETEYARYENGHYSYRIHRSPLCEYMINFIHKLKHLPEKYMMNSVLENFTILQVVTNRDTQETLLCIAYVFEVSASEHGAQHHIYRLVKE
Sequence of Avi-humanTEAD4 217-434 / Cy5 labeled humanYAP 60-100 (Q15561 217-434): as above

`NC(=O)c1cccc(F)c1-c1c(Cl)ccc2c1C[C@@](CN[C@H]1CC[C@@H](C(N)=O)CC1)(c1ccccc1)O2` (relative stereo) [Example 138b, 2-((2S,4S)-2-((((cis)-4-carbamoylcyclohexyl)amino)methyl)-5-chloro-2-phenyl-2,3-dihydrobenzofuran-4-yl)-3-fluorobenzamide]: the IC50 in test [1] is 221 nM; in test [2] it was 18 nM; in the test with MKN-45/Ubc-luc cells [5] (setting [7]) it was 7.63 µM. Also, the GI50 in the test on MKN-45/Ubc-luc cells [3] was more than 10000 nM; in test [4], 435 nM.
The like results for `NC(=O)c1cccc(F)c1-c1c(Cl)ccc2c1C[C@@](CN[C@H]1CC[C@H](C(N)=O)CC1)(c1ccccc1)O2` (relative stereo) [Example 138a, 2-((2S,4S)-2-((((Trans)-4-carbamoylcyclohexyl)amino)methyl)-5-chloro-2-phenyl-2,3-dihydrobenzofuran-4-yl)-3-fluorobenzamide] were, in that order, 239 nM, 18 nM, more than 20 µM, more than 13300 nM and 366 nM.
With `NC[C@@]1(c2ccccc2)Cc2c(cc(F)c(Cl)c2-c2c(F)cccc2C(N)=O)O1` [Example 32a, 2-((2S,4S)-2-(Aminomethyl)-5-chloro-6-fluoro-2-phenyl-2,3-dihydrobenzofuran-4-yl)-3-fluorobenzamide], the IC50 in test [1] (Homo sapiens, NCI-H2052, 24 h) was 498 nM; in test [2], 33 nM; in the test with MKN-45/Ubc-luc cells [5] (setting [8]), more than 10 µM. Besides, the 50% growth inhibitory concentration (GI50) stood at 6120 nM in the test on MKN-45/Ubc-luc cells [3] (Homo sapiens) and 833 nM in test [4] (Homo sapiens, NCI-H2052, 72 h).
For the compound `CNC(=O)c1ccc(OCCO)c(F)c1-c1c(Cl)c(F)cc2c1C[C@](c1ccccc1)([C@@H]1CCCN1)O2` (atropisomer, axis not shown) [Example 153, 2-((2S,4S)-5-Chloro-6-fluoro-2-phenyl-2-((S)-pyrrolidin-2-yl)-2,3-dihydrobenzofuran-4-yl)-3-fluoro-4-(2-hydroxyethoxy)-N-methylbenzamide], the IC50 in test [1] (Homo sapiens, NCI-H2052, 24 h) was 24 nM; in test [6] it was less than 1 nM; in the test on MKN-45/Ubc-luc cells [5] (setting [8]), more than 10 µM. The concentration for 50% growth inhibition (GI50) in the test on MKN-45/Ubc-luc cells [3] (Homo sapiens) is more than 10000 nM; in test [4] (Homo sapiens, NCI-H2052, 72 h), 104 nM.

Values taken from US12083101B2, “Biaryl derivatives as YAP/TAZ-TEAD protein-protein interaction inhibitors” (Novartis AG, priority 2020, dated 2024).
